Measured values published in EP0466944A1, “4H-3,1-BENZOXAZIN-4-ONE COMPOUND AND ELASTASE INHIBITOR COMPOSITION CONTAINING THE SAME” (TEIJIN LIMITED, priority 1990, dated 1991).

System: human purulent sputum elastase
Assay: Inhibitory effect on pulmonary hemorrhage in elastase-given hamsters (hemoglobin in bronchoalveolar lavage fluid)
Format: in vivo, Syrian Golden Hamsters
Conditions: 1 mg/kg through respiratory tract 30 minutes before elastase (1 mg/kg), lavage three hours after elastase
Method: The efficacy of the compounds of the invention in vivo can be evaluated by the following procedures. In other words, a certain dose of a solution or dispersion of the compound of the invention is given through the respiratory tract, then human purulent sputum elastase is given through the respiratory tract after a certain time. The bronchoalveolar lavage were performed at a definite time after the elastase treatment and the hemoglobin is determined in the bronchoalveolar lavage fluids. The pulmonary hemorrhage is compared with that when a solution containing no compound of the present invention is given to measure the hemorrhage-inhibitory effect of the compounds of the present invention (Bonney et al., J. Cellular Biochemistry, 39, 47 - 53, (1989)).
The compounds according to the invention listed in Table 3 were dissolved or dispersed in 0.01 M phosphate-buffered physiological saline solution (pH 7.5), given to Syrian Golden Hamsters (body weight: about 100 g) 1 mg/kg through respiratory tract, then 30 minutes later, human purulent sputum elastase was given (1 mg/kg) through respiratory tract. Three hours after elastase administration, the animals were sacrificed by bleeding to open their chests and the bronchoalveolar lavage was performed with physiological saline solution. The hemoglobin in the lavage fluid was determined by the cyanmethemoglobin method. […]

In the case of `Cc1cc(NC(=O)C(Cc2ccccc2)NC(=O)OCc2ccccc2)cc2nc(NC(C)C)oc(=O)c12` (stereo not shown) [Comparative example 1], the “inhibition rate of pulmonary hemorrhage” value was “weak”.
